In data set [1] the test system is Hep-G2 cells. Nature of the data set: Immunoblotting of PD-L1 and PD-1 expression. Format: cell-based, human. The following applies: 24 h, SAHA 5 and 10 μM, STR-V-53 10 and 20 μM. How it is done:
(§1) Figure 3 Effects of STR-V-53 on intracellular markers of HDAC inhibition, antitumor immune response, and apoptosis. (a) STR-V-53 upregulates the levels of acetylated H4 and tubulin in Hep-G2 cells. Hep-G2 cells were treated with DMSO or 0.1% DMSO solution of SAHA (1.25 μM) and STR-V-53 (1.25 μM, 2.5 μM). Cells were treated for 5 h before lysis. Data are from two independent experiments. (b) STR-V-53 upregulates PD-L1 and downregulates PD-1 expressions in Hep-G2 cells. Cells were treated with DMSO or 0.1% DMSO solution of SAHA (5 μM and 10 μM) and STR-V-53 (10 and 20 μM) for 24 h. (c) STR-V-53 and SAHA caused upregulation of the levels of CD54 in the Hep-G2 cell line. Cells were treated with DMSO or 0.1% DMSO solution of SAHA (5 and 10 μM) and STR-V-53 (5, 10, and 20 μM) for 24 h. […] Cells were treated with DMSO or 0.1% DMSO solution of SAHA (5 μM) and STR-V-53 (10 and 20 μM).
One of the consequences of histone deacetylase inhibition is the alteration of tumor immunogenicity in favor of enhanced antitumor immune responses.[28],[29] Specifically, HDACi robustly upregulates PD-L1 in human and murine cell lines and patient tumors.[30],[31] To investigate the effects of our glycosylated HDACi on immune checkpoint molecules, we used immunoblotting to probe for the expression levels of PD-L1 and PD-1 in Hep-G2 cells incubated with lead compound STR-V-53 for 24 h. We used SAHA and DMSO as positive and negative controls, respectively.

Data set [2] deals with Hep-G2 cells. The data set is described as follows: Immunoblotting of CD54 (ICAM-1) expression. To be noted: 24 h, STR-V-53 at IC50 and 2× IC50. The data set is classed as cell-based, human. On the procedure:
as §1
HDACi regulates the expression levels of other tumor antigens such as CD40, CD54 (ICAM-1), CD80, and CD86 in tumor cells.[32]−[35] More specifically, the repression of CD54 expression is another strategy tumors use to escape the immune response.[36] […] To investigate the effect of our glycosylated HDACi on the expression of CD54, we incubated Hep-G2 cells with STR-V-53 at IC50 and 2× IC50 for 24 h. We used immunoblotting to determine the effect of this treatment on CD54 expression. […]

The subject of the next data set is Hep-G2 HCC cells. Nature of the data set: Cell cycle analysis by flow cytometry. Format: cell-based, human. The following applies: 48 h. On the procedure:
To determine if the HCC cell selective cytotoxicity of STR-V-53 results from its perturbation of the cell cycle pattern, we evaluated the effect of STR-V-53 on the cycle progression by flow cytometry using SAHA as a control (Figure 4).
Figure 4 Effect of STR-V-53 treatment on HCC cell cycle progression. (a–c) Human Hep-G2 HCC cells were cultured until 80% confluence in a 10 cm Petri dish. The cells were serum-starved overnight before drug treatment. Then, the cells were treated with 10 mL of 0.1% DMSO medium and 0.1% DMSO solution of SAHA (5 μM) or STR-V-53 (15 μM) for 48 h. Control group (ai); SAHA (5 μM)-treated group (aii), and STR-V-53 (15 μM)-treated group (aiii and biii). (c) Quantification of the cell cycle data from two independent experiments. Bars show mean plus standard deviation; *P < 0.0332; **P < 0.0021; ***P < 0.0002; ****P < 0.00001.
MIDI 4-20% gel (Biorad, cat. 5671093) and ran at 150 V for 70 min. […] After washing with TBS-T 3x5 mins, bands were quantified using the Odyssey CLx Image system.
Hep-G2 or VERO cells were seeded (2500 to 4,000 counts/well) into 96-well plates, in which each well contains 100 µL media. […] After 2.5-4 h incubation, the plates were read using a multiplate reader at 490 nm. […]
Then cells were treated with another 500 µL of 100 ug/mL PI staining at room temperature for 30 min. The cell cycle was analyzed with BD FACS Aria Illu analyzer, and the data were […]

Description for RIL-175 murine HCC: (d) Body weight change of tumor-bearing mice in the four treatment groups.
Next, we evaluated the in vivo efficacy of STR-V-53 alone or combined with an anti-PD1
antibody in a p53-null murine HCC model.
into the subcapsular region of the liver parenchyma in C57Bl/6 mice, and tumor growth was
monitored by high-frequency ultrasonography. When tumors reached ~5 mm in diameter, mice
were randomly assigned to one of the four treatment groups (n=12 mice): DMA/ CRH/Water
(10%/20%/70%) (control), STR-V-53 (25mg/kg daily by i.p. for 3 weeks), anti-PD1 antibody
(10mg/kg thrice a week for 3 weeks), or combination of STR-V-53 and anti-PD1 antibody. Anti-
PD1 antibody treatment was administered i.p. for a total of 9 injections. Tumor growth and body
weight were measured every three days by ultrasound imaging, and tumor size was calculated as
0.5×length×width2. Per protocol, moribund status was used as the endpoint, and moribundity
the starting date, body condition score of more than 2, and tumor size of more than 15 mm in
diameter. Data were processed using GraphPad Prism 8, and survival analysis was performed

In the case of `O=C(CCCCCCC(=O)Nc1ccccc1)NO` [SAHA, vorinostat, reference compound], in the data set with Hep-G2 cells [1], the PD-1 expression level result is reported as “downregulate” and the PD-L1 expression level entry is recorded as “upregulate”. Moreover, the CD54 expression entry in the data set with Hep-G2 cells [2] was “upregulated”. In addition, the Cell cycle progression result with Hep-G2 HCC cells (5 μM) is reported as “significant S phase arrest”.
`O=C(CCCCCCn1cc(-c2ccc(O[C@H]3O[C@H](CO)[C@@H](O)[C@H](O)[C@H]3O)cc2)nn1)NO` [STR-V-53]: in the data set on Hep-G2 cells [1], the PD-1 expression level result is given as “downregulate” and the PD-L1 expression level result is listed as “upregulate”. Further, the CD54 expression entry in the data set with Hep-G2 cells [2] is “upregulated”. The Cell cycle progression result with Hep-G2 HCC cells (15 μM) is given as “significant S phase arrest”. Besides, in the data set with RIL-175 murine HCC (RIL-175 model, 12 mice per group), the “Body weight change of tumor-bearing mice (weight loss)” value was 4/12. In the data set with RIL-175 murine HCC (RIL-175 model, n = 12), the Tumor growth entry is on record as “minor effect on tumor growth”. The “Overall survival (Kaplan–Meier)” value with RIL-175 murine HCC (RIL-175 model, n = 12, vs IgG control) is “no impact on survival”. The “Overt toxicity during the treatment period” value in the data set on RIL-175 murine HCC (RIL-175 tumor-bearing mice) is “no significant overt toxicity”.
